US8658591B2, “Multi-LEU peptides and analogues thereof as selective PACE4 inhibitors and effective antiproliferative agents” (priority 2008, dated 2014)
Several values for one entry are separate records, joined by “and”; a condition that tells them apart may be missing. Equal values may be shown once.

Columns and labels:
PC5/6 = PC5/6 (Homo sapiens, UniProt Q92824); experiment: Enzyme inhibition assay, fluorogenic substrate, PC5/6; format: biochemical
Method: (§1) Enzyme inhibition assays for furin (FIG. 5D) were performed in 100 mM Hepes pH 7.5, 1 mM CaCl2, 1 mM β-mercaptoethanol, 0.5 μg/μL BSA. Assays for PC2 (FIG. 5E) were performed in 20 mM Bis-Tris pH 5,7, 1 mM CaCl2, 0.1% Brij-30. Assays for PC1/3, PC4, PACE4, PC5/6 and PC7 (FIGS. 5F, G, A, B and C respectively) were performed in 20 mM Bis-Tis pH 6.5, 1 mM CaCl2. All assays were performed with the substrate pyroGlu-Arg-[…]-Lys-Arg-methyl-coumaryl-7-amide (SEQ ID NO: 33) (PyrRTKR-MCA (SEQ ID NO: 34)) (Bachem, CA) at 100 μM for furin, PC1/3, PC4, PACE4 and PC5/6, 200 μM for PC2 and 250 μM for PC7. Assays were carried out at 37° C. for 30-60 min and real-time fluorescence was measured with an excitation wavelength of 370 nm and an emission wavelength of 460 nm using a Gemini XS™ 96-well spectrofluorometer and SoftMaxPro4™ software (Molecular Devices, CA). Inhibitory peptides were added to the enzymes at decreasing concentrations from 100 μM to 50 nM and incubated 5 minutes prior to the addition of substrate.

furin = furin (Homo sapiens, UniProt P09958); experiment: Enzyme inhibition assay, fluorogenic substrate, furin; format: biochemical
Method: as §1

PC1/3 = target: T1, PC1/3 (Homo sapiens, UniProt P29120); experiment: Enzyme inhibition assay, fluorogenic substrate, PC1/3; format: biochemical
T1 sequence (P29120 111-753): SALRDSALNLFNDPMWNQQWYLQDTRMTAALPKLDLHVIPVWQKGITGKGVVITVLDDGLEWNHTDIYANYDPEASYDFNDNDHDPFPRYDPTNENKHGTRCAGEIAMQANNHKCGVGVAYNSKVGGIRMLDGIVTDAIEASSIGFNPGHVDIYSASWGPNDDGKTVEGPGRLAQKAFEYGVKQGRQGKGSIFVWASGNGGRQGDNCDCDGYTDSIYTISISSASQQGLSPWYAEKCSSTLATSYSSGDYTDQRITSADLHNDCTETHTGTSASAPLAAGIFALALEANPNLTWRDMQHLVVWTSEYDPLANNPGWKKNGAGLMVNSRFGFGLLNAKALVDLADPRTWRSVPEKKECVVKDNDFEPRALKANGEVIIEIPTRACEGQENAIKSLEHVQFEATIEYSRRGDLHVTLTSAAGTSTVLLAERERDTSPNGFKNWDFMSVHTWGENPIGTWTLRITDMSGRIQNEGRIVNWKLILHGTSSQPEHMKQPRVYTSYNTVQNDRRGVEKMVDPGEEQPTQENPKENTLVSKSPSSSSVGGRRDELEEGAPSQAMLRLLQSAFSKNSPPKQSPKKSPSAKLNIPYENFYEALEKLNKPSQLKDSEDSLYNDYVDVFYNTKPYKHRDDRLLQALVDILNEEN
Method: as §1

PC7 = target: T2, PC7 (Homo sapiens, UniProt Q16549); experiment: Enzyme inhibition assay, fluorogenic substrate, PC7; format: biochemical; conditions: 20 mM Bis-Tis pH 6.5, 1 mM CaCl2, substrate 250 μM, 37° C.
T2 sequence (Q16549 142-785): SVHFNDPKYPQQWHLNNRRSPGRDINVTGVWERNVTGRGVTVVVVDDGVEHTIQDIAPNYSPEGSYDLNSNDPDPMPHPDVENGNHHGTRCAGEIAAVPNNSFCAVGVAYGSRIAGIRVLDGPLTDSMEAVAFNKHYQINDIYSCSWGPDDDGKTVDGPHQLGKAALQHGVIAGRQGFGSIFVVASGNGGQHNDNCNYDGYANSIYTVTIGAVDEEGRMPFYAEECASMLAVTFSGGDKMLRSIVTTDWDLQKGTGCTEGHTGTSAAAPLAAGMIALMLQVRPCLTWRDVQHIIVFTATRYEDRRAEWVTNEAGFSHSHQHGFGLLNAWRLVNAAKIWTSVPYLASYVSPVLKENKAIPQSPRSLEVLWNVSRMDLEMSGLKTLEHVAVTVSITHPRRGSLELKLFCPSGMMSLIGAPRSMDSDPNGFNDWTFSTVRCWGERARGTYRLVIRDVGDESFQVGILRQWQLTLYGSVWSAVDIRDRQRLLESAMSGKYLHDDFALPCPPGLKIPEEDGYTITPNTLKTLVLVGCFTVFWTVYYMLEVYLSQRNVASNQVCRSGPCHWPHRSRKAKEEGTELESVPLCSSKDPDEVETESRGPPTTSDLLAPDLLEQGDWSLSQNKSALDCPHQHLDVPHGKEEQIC
Method: as §1

[1] = test system: prostatic cell line DU145; experiment: MTT cell proliferation index, DU145; format: cell-based, human; conditions: control = 100%, MTT after 48 hours
Method: The effects of the PACE4 inhibitors on cell proliferation were evaluated. MTT assay was used to evaluate the effects of PACE4 inhibitors on cell proliferation. MTT (3-(4,5-Dimethylthiazol-2-yl)-2,5-diphenyltetrazolium bromide) assay is a standard colorimetric assay for measuring cellular proliferation. Yellow MTT is reduced to purple formazan in the mitochondria of living cells. This reduction takes place only when mitochondrial reductase enzymes are active. Conversion is directly related to the number of viable cells. The MTT assay is quantitative and more sensitive than viability using trypan blue and can also be adapted to 96 well formats, whereas trypan blue tests must be read individually. Because the MTT assay requires less cell manipulation than [^3H]thymidine incorporation assays (no cell harvesting or medium changes are necessary), the possibility of error is reduced and the standard deviation values are lower. […] Other assays also known can be used to determine the effects of an inhibitor on the proliferation of a cell.
The index of cellular proliferation of cells treated with the ML and acetyl-ML (CH3CO—NH-[…]-CONH2 (SEQ ID NO: 5), see Table 2) peptides were measured using the colorimetric MTT assay (thiazolyl blue tetrazolium bromide; Sigma-Aldrich). Briefly, cells were seeded in 96-well plate (BD Biosciences) in triplicate with 100 μl of a 3.5×10^4 cells/ml cell suspension in complete growth medium. The following day, cells were carefully washed twice with PBS and media were replaced with 100 μl of either RPMI or conditioned growth media. Conditioned growth medium preparation consists in 1.2×10^5 cells seeded in 6-well plates with complete growth media. The next day, cells are washed twice with PBS and the media are replaced with 1 ml RPMI growth medium. 48 hours later, the conditioned media are collected, filtered through […] syringe filter units and incubated on different cell lines.
48 hours later, 20 μl of a MTT solution (5 mg/ml in PBS 1×) was added to each well for 4.5 h at 37° C./5% CO2. The media was then discarded and the cells were solubilized with 100 μl isopropanol/0.04 N HCl solution. The absorbance was measured at a wavelength of 550 nm with a reference at 650 nm in microplate reader (SpectraMax190™; Molecular Devices).

[2] = test system: gliobastoma cell line U251; experiment: MTT cell proliferation index, U251; format: cell-based, human
Method: (§2) The effects of the PACE4 inhibitors on cell proliferation were evaluated. MTT assay was used to evaluate the effects of PACE4 inhibitors on cell proliferation. MTT (3-(4,5-Dimethylthiazol-2-yl)-2,5-diphenyltetrazolium bromide) assay is a standard colorimetric assay for measuring cellular proliferation. Yellow MTT is reduced to purple formazan in the mitochondria of living cells. This reduction takes place only when mitochondrial reductase enzymes are active. Conversion is directly related to the number of viable cells. The MTT assay is quantitative and more sensitive than viability using trypan blue and can also be adapted to 96 well formats, whereas trypan blue tests must be read individually. […]
(§3) The index of cellular proliferation of cells treated with the ML and acetyl-ML (CH3CO—NH-[…]-CONH2 (SEQ ID NO: 5), see Table 2) peptides were measured using the colorimetric MTT assay (thiazolyl blue tetrazolium bromide; Sigma-Aldrich). […]
(§4) 48 hours later, 20 μl of a MTT solution (5 mg/ml in PBS 1×) was added to each well for 4.5 h at 37° C./5% CO2. […] The absorbance was measured at a wavelength of 550 nm with a reference at 650 nm in microplate reader (SpectraMax190™; Molecular Devices).

[3] = test system: sarcofibroma cell line HT1080; experiment: MTT cell proliferation index, HT1080; format: cell-based, human
Method: as §2, §3, §4

DU145 cells = experiment: Annexin-V-FITC/propidium iodide apoptosis assay, DU145; format: cell-based, human; conditions: DU145, 66 μM, 48 h
Method: The annexin V assay is based on the observation that soon after initiating apoptosis, cells translocate the membrane phosphatidylserine from the inner face of the plasma membrane to the cell surface. Once on the cell surface, phosphatidylserine can be easily detected by staining with a fluorescent conjugate of Annexin V, a protein that has a high affinity for phosphatidylserine. Detection is analyzed by flow cytometry. […] This analysis was performed with a FITC-conjugated annexin-V, which has a strong affinity for these extracellular phosphatidylserines, and the fluorescent intercalating agent propidium iodide (PI). Cell lines were seeded in a 6-well plate at a density of 8×10^4 cells/well in complete growth medium. The next day, cells were washed twice with PBS and complete growth media with or without cisplatin (Sigma) at final concentration of 66 μM were added. After a 48 hours incubation period, growth media were collected and combined to the harvested cells obtained after trypsin treatment. The collected pellets were washed with PBS before staining. Then, cells were stained with the Annexin-V-FLUOS™ Staining Kit (Roche Applied science), which double labeled cells with annexin-V-fluorescein isothiocyanate (FITC) and propidium iodide (PI). Stained cells were then analyzed with FACScan flow cytometer (BD Biosciences).

[4] = test system: 4-2 cells (DU145 transfected with PACE4-SOFA-δRz); experiment: Annexin-V-FITC/propidium iodide apoptosis assay, 4-2 cells; format: cell-based, human; conditions: 66 μM, 48 h
Method: To determine if the reduced cell number observed in the 4-2 cell line, described previously in Example 3, was a consequence of the induction of the apoptosis, the translocation of phosphatidylserine from the inner to the outer leaflet of the plasma membrane was analyzed. This analysis was performed with a FITC-conjugated annexin-V, which has a strong affinity for these extracellular phosphatidylserines, and the fluorescent intercalating agent propidium iodide (PI). Cell lines were seeded in a 6-well plate at a density of 8×10^4 cells/well in complete growth medium. The next day, cells were washed twice with PBS and complete growth media with or without cisplatin (Sigma) at final concentration of 66 μM were added. After a 48 hours incubation period, growth media were collected and combined to the harvested cells obtained after trypsin treatment. The collected pellets were washed with PBS before staining. Then, cells were stained with the Annexin-V-FLUOS™ Staining Kit (Roche Applied science), which double labeled cells with annexin-V-fluorescein isothiocyanate (FITC) and propidium iodide (PI). Stained cells were then analyzed with FACScan flow cytometer (BD Biosciences).

PACE4 = target: T3, PACE4 (Homo sapiens, UniProt P29122); experiment: Enzyme inhibition assay, fluorogenic substrate, PACE4; format: biochemical
T3 sequence (P29122 150-969): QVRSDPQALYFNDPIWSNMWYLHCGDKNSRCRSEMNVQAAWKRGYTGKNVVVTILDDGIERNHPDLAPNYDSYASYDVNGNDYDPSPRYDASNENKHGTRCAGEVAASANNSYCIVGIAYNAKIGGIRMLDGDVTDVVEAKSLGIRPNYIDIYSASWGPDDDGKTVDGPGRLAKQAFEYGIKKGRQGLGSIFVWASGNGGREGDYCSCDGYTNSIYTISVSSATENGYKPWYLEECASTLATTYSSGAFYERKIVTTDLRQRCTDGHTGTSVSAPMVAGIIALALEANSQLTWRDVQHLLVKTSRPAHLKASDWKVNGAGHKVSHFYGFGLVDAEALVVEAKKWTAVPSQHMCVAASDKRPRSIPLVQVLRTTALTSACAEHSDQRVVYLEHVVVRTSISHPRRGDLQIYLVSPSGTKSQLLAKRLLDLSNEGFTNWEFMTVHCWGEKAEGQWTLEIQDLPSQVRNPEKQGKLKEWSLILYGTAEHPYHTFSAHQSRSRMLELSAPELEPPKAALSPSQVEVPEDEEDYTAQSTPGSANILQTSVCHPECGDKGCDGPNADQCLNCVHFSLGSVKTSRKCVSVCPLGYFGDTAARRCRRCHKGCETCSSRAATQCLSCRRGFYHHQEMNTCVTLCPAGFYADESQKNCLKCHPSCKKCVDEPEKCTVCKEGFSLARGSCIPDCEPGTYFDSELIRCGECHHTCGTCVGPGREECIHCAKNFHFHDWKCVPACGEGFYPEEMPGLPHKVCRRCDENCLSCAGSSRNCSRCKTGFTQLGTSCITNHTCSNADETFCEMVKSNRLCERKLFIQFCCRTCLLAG
From the text: Those skilled in the art can easily determine PACE4 activity using routine experimentation. For example, the activity assay of PACE4 can be carried out in 96 well plates, and includes the use of a fluorogenic substrate, namely PyrRTKR-AMC (SEQ ID NO: 30) (AMC is amino-methyl-coumarin). The substrate and the purified enzyme are placed in the wells, and depending on the units of enzyme present, the AMC moiety will be cleaved at a certain rate, such a pmoles/sec. The resultant free AMC is now fluorescent and can be detected with a spectrofluorometer. The addition of inhibitors to the assay will yield progress curves that have lesser slopes. Based on these changes the inhibitory constants (Ki) is calculated (Fugere et al., 2002, J. Biol. Chem., 277:7648-56).
as §1

furin, sequence (P09958 108-794, species assumed): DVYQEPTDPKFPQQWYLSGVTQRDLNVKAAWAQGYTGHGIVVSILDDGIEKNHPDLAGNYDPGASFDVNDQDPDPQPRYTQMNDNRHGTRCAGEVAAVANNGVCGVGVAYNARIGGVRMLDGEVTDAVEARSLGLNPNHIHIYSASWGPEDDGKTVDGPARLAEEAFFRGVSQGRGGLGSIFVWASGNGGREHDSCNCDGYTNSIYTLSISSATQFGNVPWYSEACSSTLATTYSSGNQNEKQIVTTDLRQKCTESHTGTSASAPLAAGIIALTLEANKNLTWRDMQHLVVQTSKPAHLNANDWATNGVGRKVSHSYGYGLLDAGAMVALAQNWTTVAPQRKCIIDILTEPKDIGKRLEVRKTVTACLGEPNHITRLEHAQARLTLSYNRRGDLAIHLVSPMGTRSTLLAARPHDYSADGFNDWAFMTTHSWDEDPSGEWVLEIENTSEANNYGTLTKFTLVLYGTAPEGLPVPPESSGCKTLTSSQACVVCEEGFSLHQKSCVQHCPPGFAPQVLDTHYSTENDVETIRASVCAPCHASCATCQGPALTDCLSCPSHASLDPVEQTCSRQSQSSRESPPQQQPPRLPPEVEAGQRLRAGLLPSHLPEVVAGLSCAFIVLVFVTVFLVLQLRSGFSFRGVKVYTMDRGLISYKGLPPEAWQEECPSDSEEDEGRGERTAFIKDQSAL
PC5/6, sequence (Q92824 115-1860): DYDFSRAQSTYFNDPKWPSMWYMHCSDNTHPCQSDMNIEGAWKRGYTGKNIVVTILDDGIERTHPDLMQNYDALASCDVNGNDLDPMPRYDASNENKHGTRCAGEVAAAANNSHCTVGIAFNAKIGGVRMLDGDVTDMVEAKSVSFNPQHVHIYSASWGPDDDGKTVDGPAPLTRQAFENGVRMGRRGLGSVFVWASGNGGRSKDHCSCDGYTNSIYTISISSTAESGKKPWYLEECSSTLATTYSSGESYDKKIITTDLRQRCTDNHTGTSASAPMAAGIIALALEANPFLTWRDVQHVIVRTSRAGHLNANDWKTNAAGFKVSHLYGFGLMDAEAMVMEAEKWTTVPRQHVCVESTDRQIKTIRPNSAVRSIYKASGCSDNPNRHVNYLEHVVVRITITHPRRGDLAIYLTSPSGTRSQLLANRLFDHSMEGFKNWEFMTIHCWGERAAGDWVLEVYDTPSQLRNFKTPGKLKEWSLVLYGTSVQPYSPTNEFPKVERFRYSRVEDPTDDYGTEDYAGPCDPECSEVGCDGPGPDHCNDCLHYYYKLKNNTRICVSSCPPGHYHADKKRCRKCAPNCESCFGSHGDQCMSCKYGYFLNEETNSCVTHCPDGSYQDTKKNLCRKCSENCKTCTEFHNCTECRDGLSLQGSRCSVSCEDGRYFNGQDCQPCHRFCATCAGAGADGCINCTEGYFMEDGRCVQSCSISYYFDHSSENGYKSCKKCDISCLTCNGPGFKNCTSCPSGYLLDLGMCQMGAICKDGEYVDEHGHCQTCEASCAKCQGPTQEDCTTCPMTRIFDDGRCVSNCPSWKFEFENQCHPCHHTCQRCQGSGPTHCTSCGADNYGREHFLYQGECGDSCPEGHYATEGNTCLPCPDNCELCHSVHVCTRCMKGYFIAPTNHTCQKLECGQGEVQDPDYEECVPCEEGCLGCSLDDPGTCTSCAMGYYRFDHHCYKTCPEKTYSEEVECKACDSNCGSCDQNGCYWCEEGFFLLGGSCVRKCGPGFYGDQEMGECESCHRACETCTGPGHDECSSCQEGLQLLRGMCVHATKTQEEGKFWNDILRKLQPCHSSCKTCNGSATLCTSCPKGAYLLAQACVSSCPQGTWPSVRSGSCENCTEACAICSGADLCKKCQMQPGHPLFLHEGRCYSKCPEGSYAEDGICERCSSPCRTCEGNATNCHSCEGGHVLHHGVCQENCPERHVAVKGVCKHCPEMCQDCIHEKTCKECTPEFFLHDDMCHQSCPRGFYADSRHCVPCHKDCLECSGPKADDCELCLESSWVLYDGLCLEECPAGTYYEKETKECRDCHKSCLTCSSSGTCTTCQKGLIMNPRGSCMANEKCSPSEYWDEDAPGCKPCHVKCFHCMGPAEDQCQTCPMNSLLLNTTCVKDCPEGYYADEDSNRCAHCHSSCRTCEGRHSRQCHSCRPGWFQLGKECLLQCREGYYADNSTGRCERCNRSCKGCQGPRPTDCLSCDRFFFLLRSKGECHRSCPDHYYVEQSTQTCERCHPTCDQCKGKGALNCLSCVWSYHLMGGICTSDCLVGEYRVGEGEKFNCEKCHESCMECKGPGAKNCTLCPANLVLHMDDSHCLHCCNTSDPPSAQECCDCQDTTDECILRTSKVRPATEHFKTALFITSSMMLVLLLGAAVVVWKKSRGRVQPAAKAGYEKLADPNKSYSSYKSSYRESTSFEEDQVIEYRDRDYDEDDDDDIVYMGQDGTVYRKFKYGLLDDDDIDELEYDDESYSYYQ

Compound	inhibition potency on furin, in words (furin)	Ki (PC7)	Cell proliferation index ([1]; DU145, 1 μM peptide)	Cell proliferation index ([1]; DU145, 10 μM peptide)	Cell proliferation index ([1]; DU145, 50 μM peptide)	Cell proliferation index ([1]; DU145, 100 μM peptide)	effect on cell proliferation index, in words [2]	effect on cell proliferation index, in words [3]	further results
LLRVKR [LLRVKR—NH2, LLRVKR-NH2]	mid-nanomolar inhibitors	–	–	–	–	–	–	–	inhibition potency on PC5/6, in words (PC5/6): mid-low nanomolar range; inhibition potency on PC1/3, in words (PC1/3): best inhibited
CC(C)C[C@H](NC(=O)[C@H](CC(C)C)NC(=O)[C@H](CC(C)C)NC(=O)[C@@H](N)CC(C)C)C(=O)N[C@@H](CC(C)C)C(=O)N[C@@H](CCCNC(=N)N)C(=O)N[C@H](C(=O)N[C@@H](CCCCN)C(=O)N[C@@H](CCCNC(=N)N)C(N)=O)C(C)C [5 Leu]	–	0.035 to 0.05 µM	–	–	–	–	–	–	–
CH3CO—NH-LLLLRVKR-NH2 (Ac-LLLLRVKR-NH2) [acetyl ML]	–	–	63.84%	41.91%	25.79%	24.05%	significant effects	significant effects	–
N.N.[Cl][Pt][Cl] [cisplatin]	–	–	–	–	–	–	–	–	annexin-V positivity (DU145 cells; untreated 2%): 30%; PI staining (dead cells) (DU145 cells; untreated 6%): 12%; annexin-V positivity ([4]; untreated 3%): 17%; PI staining (dead cells) ([4]; untreated 7%): 16%
H-LLLLRVKR-NH2 [ML]	–	0.035 to 0.05 µM and 0.05 µM	97.73%	92.03%	72.57%	54.70%	significant effects	significant effects	inhibition potency on PACE4, in words (PACE4): nanomolar range; Ki (PACE4; 20 mM Bis-Tis pH 6.5, 1 mM CaCl2, substrate 100 μM, 37° C.): 0.006 µM; more effective on PACE4 than the other PCs (PACE4; ratio of Ki values, other PCs vs PACE4): ≥ 9 folds
LRVKR [LRVKR—NH2, LRVKR-NH2]	mid-nanomolar inhibitors	–	–	–	–	–	–	–	–
